Experimental data as given in patent US20240197761A1, “FUCOSYLATION AND IMMUNE MODULATION IN CANCER” (H. LEE MOFFITT CANCER CENTER AND RESEARCH INSTITUTE, INC., priority 2021, published 2024).

How the values were obtained:
BM-myeloid cells = assay: Expression of MDSC biology-related genes in BM-myeloid cells; assay type: cell-based, mouse; settings: 24 or 72 hours after initial L-fuc treatment
Experimental: The expression of key MDSC biology-related genes was measured at 24 or 72 hours after in initial L-fuc treatment of the cells. Reductions in ARGI, PARP, and CHOP expression (red boxes; the expression of these genes are known to be required for MDSC immunosuppression. Increase in STAT1 is shown in green.
Next, we investigated the effect of L-fuc on NO production of bone marrow derived MDSCs (FIGS. 8A and 8B). We observed that L-fuc abrogated NO production in all cases. […] We also wanted to look at how L-fuc treatment effected the expression of immunosuppression genes (FIG. 9). We assessed the expression of key MDSC biology-related genes at 24 or 72 hours after in initial L-fuc treatment of the cells. Generally, we observed reductions in ARGI, PARP, and CHOP expression. In contrast we observed upregulation of STAT1. To further assess how L-fuc/fucosylation affects myeloid phenotype, we modulated fucosylation using DMSO (control), 2-fluoro-fucose (2FIF, fucosylation inhibitor), or L-fuc in mouse bone marrow-derived myeloid progenitors treated ±GM/G-CSF (FIG. 10). We profiled changes In M-MDSC vs. PMN-IMDSC, as well as moDC, as we observed immunostimulatory activity. […] Shown are the average values irom 12 mice. We also observed that L-fucose alters TLR profiles of dendritic cells (FIG. 11).

[1] = system: human PBMC-derived, CD3/CD28-activated CD4+T cells; assay: Phosphoproteomic and fuco-proteomic mass spectrometric profiling of CD4+T cells; assay type: cell-based; settings: 250 μM L-fucose, 48 h
Description: FIGS. 14A-14E show Fucosylation of CD4^+T cells affects PKA activity and actin polymerization; and the identification of Integrin P5 as a highly fucosylated protein in activated CD4+ T cells. (a) Top 5 pathways in human CD4^+T cells that are affected by increased fucosylation identified by Ingenuity Pathway Analysis (Qiagen; pathways were identified from phosphoproteomic analyses of CD3/CD28-activated human PBMC-derived CD4^+T cells treated L-fucose (LF) isolated from 3 independent healthy human donors (D1, D2, D3)). (b) (left) Immunoblot of PKA phosphorylated substrates (top) and Ponceau staining (bottom) of human PBMC-derived, CD3/CD28-activated CD4^+T cells that were treated ±250 μM LF±10 μM forskolin (Fkn, a PKA agonist). (right) Densitometric quantification of selected bands (red dashed boxes) normalized to Ponceau staining. (c) Immunoblot of β-actin (top) and Ponceau staining (middle) of human PBMC-derived, CD3/CD28 activated CD4^+T cells were treated ±250 μM LF±25 mM DTSP crosslinker (x-link). (bottom) Densitometric quantification of high molecular weight β-actin oligomers (red dashed boxes) normalized to Ponceau intensity and then normalized to −LF, -x-link samples. (d) Top 5 AAL-bound (fucosylated) proteins in human PBMC-derived, CD3/CD28-activated CD4^+T cells from (a) that were identified by Ingenuity Pathway Analysis (Qiagen). […]

C[C@H](O)[C@@H](O)[C@@H](O)[C@H](O)C=O [L-fucose]
ARGI, PARP, and CHOP expression (BM-myeloid cells): reductions
STAT1 expression (BM-myeloid cells): upregulation
Protein Kinase A (PKA) and actin signaling [1]: significantly altering
